Test results reported in ChEMBL document CHEMBL1201862, “PubChem BioAssay data set” (2004).
Activity calls are given as the source filed them.

Key:
Type in all cases: functional
[1] = biological target: Mast/stem cell growth factor receptor Kit (Homo sapiens, UniProt P10721);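 note: KIT entry within a kinase panel assay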
[2] = biological target: Mitogen-activated protein kinase kinase kinase kinase 5 (Homo sapiens, UniProt Q9Y4K4);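 note: measured as one member of a kinome-spanning kinase panel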
[3] = biological target: Serine/threonine-protein kinase Nek4 (Homo sapiens, UniProt P51957)
[4] = biological target: T1, Homeodomain-interacting protein kinase 4 (Homo sapiens, UniProt Q8NE63)
T1 sequence (Q8NE63 whole entry): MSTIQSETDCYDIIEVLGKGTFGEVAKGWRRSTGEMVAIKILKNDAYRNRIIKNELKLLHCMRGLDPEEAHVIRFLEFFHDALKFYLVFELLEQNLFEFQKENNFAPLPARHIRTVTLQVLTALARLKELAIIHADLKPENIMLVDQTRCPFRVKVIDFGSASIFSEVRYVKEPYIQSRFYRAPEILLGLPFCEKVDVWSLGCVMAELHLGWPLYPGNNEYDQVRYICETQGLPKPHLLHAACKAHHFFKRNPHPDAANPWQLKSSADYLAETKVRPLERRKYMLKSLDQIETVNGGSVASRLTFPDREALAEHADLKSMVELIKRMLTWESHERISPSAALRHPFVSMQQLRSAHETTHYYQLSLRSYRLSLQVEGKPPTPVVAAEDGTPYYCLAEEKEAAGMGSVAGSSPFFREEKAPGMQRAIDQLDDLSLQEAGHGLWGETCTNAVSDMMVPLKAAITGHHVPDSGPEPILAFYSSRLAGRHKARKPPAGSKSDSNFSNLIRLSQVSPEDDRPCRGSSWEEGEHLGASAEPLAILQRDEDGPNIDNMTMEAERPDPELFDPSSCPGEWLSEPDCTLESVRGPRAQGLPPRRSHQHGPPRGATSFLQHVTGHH

[5] = biological target: T2, Serine/threonine-protein kinase D2 (Homo sapiens, UniProt Q9BZL6);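 note: measured against PRKD2 as one member of a kinome-wide kinase profiling panel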
T2 sequence (Q9BZL6 whole entry): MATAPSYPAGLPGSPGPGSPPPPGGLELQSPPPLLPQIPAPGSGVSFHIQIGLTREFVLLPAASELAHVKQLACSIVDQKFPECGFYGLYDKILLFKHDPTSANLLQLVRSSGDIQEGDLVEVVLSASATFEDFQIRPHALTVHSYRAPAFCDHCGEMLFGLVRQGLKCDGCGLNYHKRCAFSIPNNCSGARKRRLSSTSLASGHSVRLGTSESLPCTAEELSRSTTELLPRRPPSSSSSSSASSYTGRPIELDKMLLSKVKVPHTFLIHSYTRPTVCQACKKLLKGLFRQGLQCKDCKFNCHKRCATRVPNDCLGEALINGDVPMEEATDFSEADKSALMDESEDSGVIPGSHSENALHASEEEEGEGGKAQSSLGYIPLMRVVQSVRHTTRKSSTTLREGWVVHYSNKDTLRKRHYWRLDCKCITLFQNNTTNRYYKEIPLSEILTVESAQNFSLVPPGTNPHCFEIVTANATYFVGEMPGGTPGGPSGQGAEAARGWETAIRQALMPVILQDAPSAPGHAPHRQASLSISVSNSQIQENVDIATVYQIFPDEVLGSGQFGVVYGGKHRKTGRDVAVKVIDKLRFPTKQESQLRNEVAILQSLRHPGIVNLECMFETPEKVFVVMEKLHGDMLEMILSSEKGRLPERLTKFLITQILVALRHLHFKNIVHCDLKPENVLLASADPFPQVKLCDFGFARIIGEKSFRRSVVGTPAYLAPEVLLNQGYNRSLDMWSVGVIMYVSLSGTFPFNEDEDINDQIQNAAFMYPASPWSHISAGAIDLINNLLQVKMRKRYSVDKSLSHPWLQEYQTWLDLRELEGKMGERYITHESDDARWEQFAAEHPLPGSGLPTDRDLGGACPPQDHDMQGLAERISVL

[6] = biological target: 5'-AMP-activated protein kinase catalytic subunit alpha-1 (Homo sapiens, UniProt Q13131)
[7] = biological target: Calcium/calmodulin-dependent protein kinase type II subunit gamma (Homo sapiens, UniProt Q13555)
[8] = biological target: MAP kinase-activated protein kinase 3 (Homo sapiens, UniProt Q16644);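 note: value comes from a kinome-wide profiling panel in which MAPKAPK3 is one of the panel members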
[9] = biological target: Interleukin-1 receptor-associated kinase 1 (Homo sapiens, UniProt P51617);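 note: IRAK1 tested as one member of a kinome panel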
[10] = biological target: Hepatocyte growth factor receptor (Homo sapiens, UniProt P08581);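 note: kinase panel profiling across the kinome, with MET as the panel member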
[11] = biological target: ALK tyrosine kinase receptor (Homo sapiens, UniProt Q9UM73);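 note: ALK tested as one member of a kinase panel screen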
[12] = biological target: Mitogen-activated protein kinase 1 (Homo sapiens, UniProt P28482)
[13] = biological target: T3, Dual specificity tyrosine-phosphorylation-regulated kinase 3 (Homo sapiens, UniProt O43781);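 note: measured as one member of a broad kinase panel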
T3 sequence (O43781 whole entry): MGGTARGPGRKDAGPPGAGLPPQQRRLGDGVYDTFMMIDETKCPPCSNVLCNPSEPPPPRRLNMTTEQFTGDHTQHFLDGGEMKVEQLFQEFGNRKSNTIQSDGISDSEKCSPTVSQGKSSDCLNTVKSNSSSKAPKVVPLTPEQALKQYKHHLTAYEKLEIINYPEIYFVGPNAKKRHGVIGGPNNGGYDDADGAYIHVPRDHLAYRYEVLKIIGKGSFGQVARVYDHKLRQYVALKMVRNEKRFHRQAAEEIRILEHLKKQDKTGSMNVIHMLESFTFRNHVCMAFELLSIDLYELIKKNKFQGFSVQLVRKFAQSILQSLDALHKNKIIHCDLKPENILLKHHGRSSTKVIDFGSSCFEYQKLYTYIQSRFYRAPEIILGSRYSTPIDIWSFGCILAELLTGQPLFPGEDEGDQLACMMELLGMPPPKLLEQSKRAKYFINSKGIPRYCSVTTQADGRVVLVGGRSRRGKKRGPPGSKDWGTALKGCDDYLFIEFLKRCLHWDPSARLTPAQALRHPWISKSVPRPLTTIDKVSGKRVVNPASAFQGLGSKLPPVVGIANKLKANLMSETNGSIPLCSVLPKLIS

[14] = biological target: Calcium/calmodulin-dependent protein kinase type II subunit alpha (Homo sapiens, UniProt Q9UQM7); assay: Navigating the Kinome. Panel member name: CAMK2A
Chain of Calcium/calmodulin-dependent protein kinase type II subunit alpha (Q9UQM7 whole entry): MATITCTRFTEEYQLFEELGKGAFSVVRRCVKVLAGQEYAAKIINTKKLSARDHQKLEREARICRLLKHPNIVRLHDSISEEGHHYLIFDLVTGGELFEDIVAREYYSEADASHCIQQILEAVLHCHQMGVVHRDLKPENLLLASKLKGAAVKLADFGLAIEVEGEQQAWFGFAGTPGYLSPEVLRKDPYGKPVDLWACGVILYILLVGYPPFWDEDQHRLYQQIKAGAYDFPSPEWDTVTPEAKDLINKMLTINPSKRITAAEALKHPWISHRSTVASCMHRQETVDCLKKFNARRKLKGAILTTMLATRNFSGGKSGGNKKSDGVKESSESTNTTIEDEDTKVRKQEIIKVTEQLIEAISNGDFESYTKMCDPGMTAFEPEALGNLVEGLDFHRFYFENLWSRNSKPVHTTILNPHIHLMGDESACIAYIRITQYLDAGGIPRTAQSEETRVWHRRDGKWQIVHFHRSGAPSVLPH

Chain of Mitogen-activated protein kinase 1 (P28482 whole entry): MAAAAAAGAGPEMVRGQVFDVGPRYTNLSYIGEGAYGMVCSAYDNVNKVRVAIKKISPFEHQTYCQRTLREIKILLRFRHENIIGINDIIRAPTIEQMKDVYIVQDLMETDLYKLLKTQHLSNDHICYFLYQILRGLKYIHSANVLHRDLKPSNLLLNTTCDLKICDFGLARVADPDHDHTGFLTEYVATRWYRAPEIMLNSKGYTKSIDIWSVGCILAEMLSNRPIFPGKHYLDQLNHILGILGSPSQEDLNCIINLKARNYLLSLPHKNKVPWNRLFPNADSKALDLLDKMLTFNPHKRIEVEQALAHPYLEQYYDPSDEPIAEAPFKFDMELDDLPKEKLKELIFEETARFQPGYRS
Chain of Calcium/calmodulin-dependent protein kinase type II subunit gamma (Q13555 whole entry): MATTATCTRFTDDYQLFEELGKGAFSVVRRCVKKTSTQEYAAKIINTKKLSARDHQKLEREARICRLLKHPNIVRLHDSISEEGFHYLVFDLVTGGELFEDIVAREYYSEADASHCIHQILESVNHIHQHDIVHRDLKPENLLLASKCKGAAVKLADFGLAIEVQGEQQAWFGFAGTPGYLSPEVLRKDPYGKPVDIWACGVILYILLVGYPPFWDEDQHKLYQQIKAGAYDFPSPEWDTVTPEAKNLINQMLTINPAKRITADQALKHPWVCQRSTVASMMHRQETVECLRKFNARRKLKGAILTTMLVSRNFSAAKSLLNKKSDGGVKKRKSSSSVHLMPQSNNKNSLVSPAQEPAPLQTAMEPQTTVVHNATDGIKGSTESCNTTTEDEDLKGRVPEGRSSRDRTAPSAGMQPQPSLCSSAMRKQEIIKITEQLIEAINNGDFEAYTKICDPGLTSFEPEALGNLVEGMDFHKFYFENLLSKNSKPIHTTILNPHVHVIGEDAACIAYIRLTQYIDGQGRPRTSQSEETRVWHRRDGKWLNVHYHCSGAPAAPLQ
Chain of Interleukin-1 receptor-associated kinase 1 (P51617 whole entry): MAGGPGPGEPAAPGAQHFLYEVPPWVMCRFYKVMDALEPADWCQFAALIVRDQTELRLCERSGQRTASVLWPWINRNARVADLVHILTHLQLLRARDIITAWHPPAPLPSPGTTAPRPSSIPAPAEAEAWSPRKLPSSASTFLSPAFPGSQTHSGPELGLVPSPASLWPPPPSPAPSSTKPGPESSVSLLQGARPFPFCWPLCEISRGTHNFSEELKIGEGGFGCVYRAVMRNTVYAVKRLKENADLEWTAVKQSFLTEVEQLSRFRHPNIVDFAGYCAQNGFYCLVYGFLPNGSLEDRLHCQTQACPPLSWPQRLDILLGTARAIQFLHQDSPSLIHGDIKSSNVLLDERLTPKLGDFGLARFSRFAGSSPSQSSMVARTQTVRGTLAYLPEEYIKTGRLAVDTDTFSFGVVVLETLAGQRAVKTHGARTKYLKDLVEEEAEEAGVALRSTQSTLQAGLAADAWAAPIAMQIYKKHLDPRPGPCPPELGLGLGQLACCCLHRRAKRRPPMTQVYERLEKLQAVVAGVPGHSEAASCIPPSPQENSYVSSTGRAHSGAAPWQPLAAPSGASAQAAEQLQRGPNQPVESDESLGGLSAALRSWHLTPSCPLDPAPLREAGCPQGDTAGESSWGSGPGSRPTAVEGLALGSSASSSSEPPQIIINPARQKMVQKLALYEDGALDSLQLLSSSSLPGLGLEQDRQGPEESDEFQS
Chain of Serine/threonine-protein kinase Nek4 (P51957 whole entry): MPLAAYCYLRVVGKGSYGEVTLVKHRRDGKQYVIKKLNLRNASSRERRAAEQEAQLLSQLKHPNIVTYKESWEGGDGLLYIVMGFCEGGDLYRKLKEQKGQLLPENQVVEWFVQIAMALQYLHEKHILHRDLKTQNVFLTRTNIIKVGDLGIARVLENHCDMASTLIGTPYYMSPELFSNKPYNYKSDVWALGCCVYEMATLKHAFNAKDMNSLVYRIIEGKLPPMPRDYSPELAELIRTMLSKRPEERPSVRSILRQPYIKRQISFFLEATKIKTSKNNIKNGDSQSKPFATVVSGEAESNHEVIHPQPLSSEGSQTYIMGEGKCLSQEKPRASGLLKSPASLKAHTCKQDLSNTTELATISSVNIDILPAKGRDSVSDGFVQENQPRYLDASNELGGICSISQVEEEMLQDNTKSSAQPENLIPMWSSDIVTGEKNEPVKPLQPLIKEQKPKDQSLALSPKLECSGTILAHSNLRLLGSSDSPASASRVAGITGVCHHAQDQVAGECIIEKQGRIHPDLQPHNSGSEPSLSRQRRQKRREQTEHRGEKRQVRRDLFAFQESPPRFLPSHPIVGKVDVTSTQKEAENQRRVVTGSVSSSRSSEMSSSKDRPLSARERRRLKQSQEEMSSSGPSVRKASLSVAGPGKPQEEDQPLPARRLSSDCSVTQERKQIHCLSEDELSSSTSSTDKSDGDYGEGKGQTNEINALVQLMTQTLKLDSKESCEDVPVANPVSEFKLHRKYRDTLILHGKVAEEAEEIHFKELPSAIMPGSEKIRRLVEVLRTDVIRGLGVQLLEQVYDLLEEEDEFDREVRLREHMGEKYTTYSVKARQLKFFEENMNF
Chain of Mitogen-activated protein kinase kinase kinase kinase 5 (Q9Y4K4 whole entry): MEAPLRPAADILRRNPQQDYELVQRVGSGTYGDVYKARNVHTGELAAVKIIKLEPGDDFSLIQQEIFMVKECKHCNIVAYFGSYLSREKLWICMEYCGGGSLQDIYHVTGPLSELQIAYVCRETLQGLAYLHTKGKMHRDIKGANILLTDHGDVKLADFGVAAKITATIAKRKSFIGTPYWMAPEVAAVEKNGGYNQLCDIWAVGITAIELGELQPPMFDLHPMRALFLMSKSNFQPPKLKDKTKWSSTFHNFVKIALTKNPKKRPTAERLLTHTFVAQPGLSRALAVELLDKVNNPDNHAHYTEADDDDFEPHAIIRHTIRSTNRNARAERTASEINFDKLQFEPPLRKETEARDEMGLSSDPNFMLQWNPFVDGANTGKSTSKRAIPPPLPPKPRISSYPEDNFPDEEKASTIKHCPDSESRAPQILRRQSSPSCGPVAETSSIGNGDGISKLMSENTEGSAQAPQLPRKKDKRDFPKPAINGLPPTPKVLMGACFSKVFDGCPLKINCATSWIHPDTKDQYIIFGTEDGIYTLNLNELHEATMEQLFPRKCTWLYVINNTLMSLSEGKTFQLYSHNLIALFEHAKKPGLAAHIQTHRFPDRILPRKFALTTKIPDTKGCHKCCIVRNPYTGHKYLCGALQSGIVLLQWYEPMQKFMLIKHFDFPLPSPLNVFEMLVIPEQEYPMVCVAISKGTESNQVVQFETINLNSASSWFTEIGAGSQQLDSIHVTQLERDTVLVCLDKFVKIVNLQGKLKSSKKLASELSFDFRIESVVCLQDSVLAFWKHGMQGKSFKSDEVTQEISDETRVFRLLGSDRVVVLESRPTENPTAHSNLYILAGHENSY
Chain of Mast/stem cell growth factor receptor Kit (P10721 whole entry): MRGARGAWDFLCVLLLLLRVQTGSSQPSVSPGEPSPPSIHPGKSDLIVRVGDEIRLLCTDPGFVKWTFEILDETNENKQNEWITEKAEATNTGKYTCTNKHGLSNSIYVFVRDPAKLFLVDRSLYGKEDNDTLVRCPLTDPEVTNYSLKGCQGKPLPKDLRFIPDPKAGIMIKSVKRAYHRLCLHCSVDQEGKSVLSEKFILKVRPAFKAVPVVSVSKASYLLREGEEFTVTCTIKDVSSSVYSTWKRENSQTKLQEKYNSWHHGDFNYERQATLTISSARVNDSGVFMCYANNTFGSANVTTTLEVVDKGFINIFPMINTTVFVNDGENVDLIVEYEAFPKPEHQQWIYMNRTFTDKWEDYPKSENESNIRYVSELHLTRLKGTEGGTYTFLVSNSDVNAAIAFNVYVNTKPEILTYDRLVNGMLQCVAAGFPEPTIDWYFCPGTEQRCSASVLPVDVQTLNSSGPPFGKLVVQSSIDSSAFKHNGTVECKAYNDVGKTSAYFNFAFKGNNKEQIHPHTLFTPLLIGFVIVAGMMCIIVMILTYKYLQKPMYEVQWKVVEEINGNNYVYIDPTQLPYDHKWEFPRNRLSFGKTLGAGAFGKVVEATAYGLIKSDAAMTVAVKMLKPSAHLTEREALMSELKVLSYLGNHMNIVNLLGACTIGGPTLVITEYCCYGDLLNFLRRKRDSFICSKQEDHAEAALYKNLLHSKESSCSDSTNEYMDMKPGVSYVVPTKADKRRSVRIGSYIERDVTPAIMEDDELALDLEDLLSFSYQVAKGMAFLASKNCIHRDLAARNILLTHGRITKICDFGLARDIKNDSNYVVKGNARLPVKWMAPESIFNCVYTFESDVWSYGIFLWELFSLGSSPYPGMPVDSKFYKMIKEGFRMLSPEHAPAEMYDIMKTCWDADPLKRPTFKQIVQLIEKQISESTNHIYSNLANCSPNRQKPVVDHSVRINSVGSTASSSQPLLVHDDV

## NC(=O)c1cc(-c2ccnc(N)n2)[nH]c1-c1ccc(Cl)cc1Cl
[1]
  Ki: > 1260 nM (inactive)
[2]
  Ki: > 2510 nM (inactive)
[3]
  Ki: 50.1 nM (active)
  pKi: 7.3
[4]
  Ki: 398 nM (active)
  pKi: 6.4
[5]
  Ki: 316 nM (active)
  pKi: 6.5
[6]
  Ki: > 1580 nM (inactive)
[7]
  Ki: 6310 nM (active)
  pKi: 5.2
[8]
  Ki: > 10000 nM (inactive)
[9]
  Ki: 100 nM (active)
  pKi: 7
[10]
  Ki: > 2510 nM (inactive)
[11]
  Ki: > 1260 nM (inactive)
[12]
  Ki: 31.6 nM (active)
  pKi: 7.5
[13]
  Ki: 10 nM (active)
  pKi: 8
[14]
  Ki: > 7940 nM (inactive)

## Cc1ccc(-n2nc(C(C)(C)C)cc2NC(=O)Nc2ccc(OCCN3CCOCC3)c3ccccc23)cc1 [DORAMAPIMOD]
[14]
  Ki: > 3980 nM (inactive)

## NC(COc1cncc(-c2ccc3c(c2)C(=Cc2ccco2)C(=O)N3)c1)Cc1c[nH]c2ccccc12 (stereo not given)
[1]
  Ki: 126 nM (active)
[2]
  Ki: 63.1 nM (active)
[3]
  Ki: 1580 nM (active)
[4]
  Ki: 63.1 nM (active)
[5]
  Ki: 15.8 nM (active)
[6]
  Ki: 20 nM (active)
[7]
  Ki: 25.1 nM (active)
[8]
  Ki: > 10000 nM (inactive)
[9]
  Ki: 501 nM (active)
[10]
  Ki: > 3160 nM (inactive)
[11]
  Ki: > 1260 nM (inactive)
[12]
  Ki: 398 nM (active)
[13]
  Ki: 7.94 nM (active)
